System: not given
Assay: not given
Details: not given

| Structure (SMILES) | melting point [°C] |
| --- | --- |
| Cc1nc2c(c(C)c(C)n2Cc2cc[nH]n2)c(-c2ccc(Cl)cc2)c1[C@H](OC(C)(C)C)C(=O)O [Example 45, (S)-2-(1-((1H-pyrazol-3-yl)methyl)-4-(4-chlorophenyl)-2,3,6-trimethyl-1H-pyrrolo[2,3-b]pyridin-5-yl)-2-(tert-butoxy)acetic acid] | 140 |
| Cc1nc2c(c(C)c(C)n2Cc2cn[nH]c2)c(-c2ccc(Cl)cc2)c1[C@H](OC(C)(C)C)C(=O)O [Example 46, (S)-2-(1-((1H-Pyrazol-4-yl)methyl)-4-(4-chlorophenyl)-2,3,6-trimethyl-1H-pyrrolo[2,3-b]pyridin-5-yl)-2-(tert-butoxy)acetic acid] | > 230 |

System: MT-4 cells
Assay: Cytotoxicity test in MT-4 cells (MTT method)
Assay type: cell-based
Details: not given
Procedure: In order to look into the HIV-1 inhibition effects of the compound of the present invention, an in vitro test for HIV-1 inhibition effects was carried out as follows according to a known method (H. Tanaka et al., J. Med. Chem., 1991, 34, 349). MT-4 cells were used as host cells, and the degree of the compound of the present invention inhibiting the cytotoxicity of the virus-infected MT-4 cells was investigated.
First, MT-4 cells were diffused at a concentration of 1×10^4 cell/well to a culture medium, and HIV-1 was inoculated so that the concentration was 500 TCI50 (concentration at which 50% of the cell is infected)/well. Immediately after the inoculation, the cell dispersion was transferred in 100 μL each to a flat microtiter plate in which the sample of the compound of the present invention was placed. The sample was incubated for approximately for 4 to 5 days at […], and the virus suppression effect was determined using an MTT method. In addition, the cytotoxicity was also determined by measuring the survivability of the experimentally virus-infected cells using an MTT method. As a comparative compound, azidothymidine (AZT) and raltegravir were used.

| Structure (SMILES) | CC60 (μM) ** : concentration at 50% cell damage with respect to MT-4 cells [µM] |
| --- | --- |
| Cc1nc2c(c(C)c(C)n2C)c(-c2ccc3c(c2Cl)CCCO3)c1[C@H](OC(C)(C)C)C(=O)O [Example 72, (S)-2-(tert-butoxy)-2-((R)-4-(5-chlorochroman-6-yl)-1,2,3,6-tetramethyl-1H-pyrrolo[2,3-b]pyridin-5-yl)acetic acid] | 16.18 |
| Cc1nc2c(c(C)c(C)n2C)c(-c2cc(F)c3c(c2C)CCCO3)c1[C@H](OC(C)(C)C)C(=O)O [Example 74, (S)-2-(Tert-butoxy)-2-((R)-4-(8-fluoro-5-methylchroman-6-yl)-1,2,3,6-tetramethyl-1H-pyrrolo[2,3-b]pyridin-5-yl)acetic acid] | 23.92 |
| Cc1nc2c(c(C)c(C)n2C)c(-c2cc(F)c3c(c2C)CCCO3)c1[C@H](OC(C)(C)C)C(=O)O [Example 75, (S)-2-(tert-butoxy)-2-((S)-4-(8-fluoro-5-methylchroman-6-yl)-1,2,3,6-tetramethyl-1H-pyrrolo[2,3-b]pyridin-5-yl)acetic acid] | 37.22 |

Same assay, conditions: human

| Structure (SMILES) | CC60 (μM) ** : concentration at 50% cell damage with respect to MT-4 cells [µM] |
| --- | --- |
| Cc1nc2c(c(C)c(C)n2Cc2cc[nH]n2)c(-c2ccc(Cl)cc2)c1[C@H](OC(C)(C)C)C(=O)O [Example 45, (S)-2-(1-((1H-pyrazol-3-yl)methyl)-4-(4-chlorophenyl)-2,3,6-trimethyl-1H-pyrrolo[2,3-b]pyridin-5-yl)-2-(tert-butoxy)acetic acid] | 19.33 |
| Cc1nc2c(c(C)c(C)n2Cc2cn[nH]c2)c(-c2ccc(Cl)cc2)c1[C@H](OC(C)(C)C)C(=O)O [Example 46, (S)-2-(1-((1H-Pyrazol-4-yl)methyl)-4-(4-chlorophenyl)-2,3,6-trimethyl-1H-pyrrolo[2,3-b]pyridin-5-yl)-2-(tert-butoxy)acetic acid] | 20.89 |
| Cc1nc2c(c(C)c(C)n2CCCC#N)c(-c2ccc(Cl)cc2)c1[C@H](OC(C)(C)C)C(=O)O [Example 60, (S)-2-(Tert-butoxy)-2-(4-(4-chlorophenyl)-1-(3-cyanopropyl)-2,3,6-trimethyl-1H-pyrrolo[2,3-b]pyridin-5-yl)acetic acid] | 18.23 |
| Cc1nc2c(c(C)c(C)n2Cc2cccc(C#N)c2)c(-c2ccc(Cl)cc2)c1[C@H](OC(C)(C)C)C(=O)O [Example 61, (S)-2-(Tert-butoxy)-2-(4-(4-chlorophenyl)-1-(3-cyanobenzyl)-2,3,6-trimethyl-1H-pyrrolo[2,3-b]pyridin-5-yl)acetic acid] | 9.43 |
| Cc1nc2c(c(C)c(C)n2Cc2ccoc2)c(-c2ccc(Cl)cc2)c1[C@H](OC(C)(C)C)C(=O)O [Example 62, (S)-2-(Tert-butoxy)-2-(4-(4-chlorophenyl)-1-(furan-3-ylmethyl)-2,3,6-trimethyl-1H-pyrrolo[2,3-b]pyridin-5-yl)acetic acid] | 15.34 |
| Cc1nc2c(c(C)c(C)n2Cc2cncs2)c(-c2ccc(Cl)cc2)c1[C@H](OC(C)(C)C)C(=O)O [Example 63, (S)-2-(Tert-butoxy)-2-(4-(4-chlorophenyl)-2,3,6-trimethyl-1-(thiazol-5-ylmethyl)-1H-pyrrolo[2,3-b]pyridin-5-yl)acetic acid] | 38.3 |
| Cc1nc2c(c(C)c(C)n2Cc2nccs2)c(-c2ccc(Cl)cc2)c1[C@H](OC(C)(C)C)C(=O)O [Example 64, (S)-2-(Tert-butoxy)-2-(4-(4-chlorophenyl)-2,3,6-trimethyl-1-(thiazol-2-ylmethyl)-1H-pyrrolo[2,3-b]pyridin-5-yl)acetic acid] | 48.57 |
| Cc1nc2c(c(C)c(C)n2CCN(C)C)c(-c2ccc(Cl)cc2)c1[C@H](OC(C)(C)C)C(=O)O [Example 65, (S)-2-(Tert-butoxy)-2-(4-(4-chlorophenyl)-1-(2-dimethylaminoethyl)-2,3,6-trimethyl-1H-pyrrolo[2,3-b]pyridin-5-yl)acetic acid] | 70.86 |
| Cc1nc2c(c(C)c(C)n2Cc2ccnc(F)c2)c(-c2ccc(Cl)cc2)c1[C@H](OC(C)(C)C)C(=O)O [Example 66, (S)-2-(Tert-butoxy)-2-(4-(4-chlorophenyl)-1-((2-fluoropyridin-4-yl)methyl)-2,3,6-trimethyl-1H-pyrrolo[2,3-b]pyridin-5-yl)acetic acid] | 14.55 |
| Cc1nc2c(c(C)c(C)n2Cc2ccc(F)nc2)c(-c2ccc(Cl)cc2)c1[C@H](OC(C)(C)C)C(=O)O [Example 67, (S)-2-(Tert-butoxy)-2-(4-(4-chlorophenyl)-1-((6-fluoropyridin-3-yl)methyl)-2,3,6-trimethyl-1H-pyrrolo[2,3-b]pyridin-5-yl)acetic acid] | 13.65 |
| Cc1nc2c(c(C)c(C)n2Cc2cccnc2F)c(-c2ccc(Cl)cc2)c1[C@H](OC(C)(C)C)C(=O)O [Example 68, (S)-2-(Tert-butoxy)-2-(4-(4-chlorophenyl)-1-((2-fluoropyridin-3-yl)methyl)-2,3,6-trimethyl-1H-pyrrolo[2,3-b]pyridin-5-yl)acetic acid] | 17.14 |
| Cc1nc2c(c(C)c(C)n2CC2CC2(F)F)c(-c2ccc(Cl)cc2)c1[C@H](OC(C)(C)C)C(=O)O (stereo partly drawn) [Example 69, (S)-2-(Tert-butoxy)-2-(4-(4-chlorophenyl)-1-((2,2-difluorocyclopropyl)methyl)-2,3,6-trimethyl-1H-pyrrolo[2,3-b]pyridin-5-yl)acetic acid] | 17.55 |
| Cc1nc2c(c(C)c(C)n2CCN2CCCC2=O)c(-c2ccc(Cl)cc2)c1[C@H](OC(C)(C)C)C(=O)O [Example 70, (S)-2-(Tert-butoxy)-2-(4-(4-chlorophenyl)-2,3,6-trimethyl-1-(2-(2-oxopyrrolidin-1-yl)ethyl)-1H-pyrrolo[2,3-b]pyridin-5-yl)acetic acid] | 49.2 |
| Cc1nc2c(c(C)c(C)n2CCN2CCCC2)c(-c2ccc(Cl)cc2)c1[C@H](OC(C)(C)C)C(=O)O [Example 71] | 73.54 |
| Cc1nc2c(c(C)c(C)n2C)c(-c2ccc3c(c2Cl)CCCO3)c1[C@H](OC(C)(C)C)C(=O)O [Example 73, (S)-2-(tert-butoxy)-2-((S)-4-(5-chlorochroman-6-yl)-1,2,3,6-tetramethyl-1H-pyrrolo[2,3-b]pyridin-5-yl)acetic acid] | 25.1 |
| Cc1nc2c(c(C)c(C)n2CC2CC2)c(-c2cc(F)c3c(c2C)CCCO3)c1[C@H](OC(C)(C)C)C(=O)O [Example 76, (S)-2-(Tert-butoxy)-2-((R)-1-(cyclopropylmethyl)-4-((R)-8-fluoro-5-methylchroman-6-yl)-2,3,6-trimethyl-1H-pyrrolo[2,3-b]pyridin-5-yl)acetic acid] | 13.94 |
| Cc1nc2c(c(C)c(C)n2Cc2cnccn2)c(-c2ccc(Cl)cc2)c1[C@H](OC(C)(C)C)C(=O)O [Example 77, (S)-2-(Tert-butoxy)-2-(4-(4-chlorophenyl)-2,3,6-trimethyl-1-(pyrazin-2-ylmethyl)-1H-pyrrolo[2,3-b]pyridin-5-yl)acetic acid] | 38.86 |
| COCCn1c(C)c(C)c2c(-c3ccc(Cl)cc3)c([C@H](OC(C)(C)C)C(=O)O)c(C)nc21 [Example 78, (S)-2-(tert-butoxy)-2-(4-(4-chlorophenyl)-1-(2-methoxyethyl)-2,3,6-trimethyl-1H-pyrrolo[2,3-b]pyridin-5-yl)acetic acid] | 18.36 |
| Cc1nc2c(c(C)c(C)n2Cc2ccn(C)n2)c(-c2ccc(Cl)cc2)c1[C@H](OC(C)(C)C)C(=O)O [Example 79, (S)-2-(tert-butoxy)-2-(4-(4-chlorophenyl)-2,3,6-trimethyl-1-((1-methyl-1H-pyrazol-3-yl)methyl)-1H-pyrrolo[2,3-b]pyridin-5-yl)acetic acid] | 25.09 |

— US9499537B2, “Antiviral pyrrolopyridine derivatives and method for preparing the same” (KOREA RESEARCH INSTITUTE OF CHEMICAL TECHNOLOGY, priority 2011, dated 2016)
